In PMC5961012 (Journal of Antimicrobial Chemotherapy, 2018) one finds Kd data, which are given here for 1 compound.

This assay addresses T1, AceR (Acinetobacter baumannii, UniProt P0DUU5).
T1 sequence (P0DUU5 84-297): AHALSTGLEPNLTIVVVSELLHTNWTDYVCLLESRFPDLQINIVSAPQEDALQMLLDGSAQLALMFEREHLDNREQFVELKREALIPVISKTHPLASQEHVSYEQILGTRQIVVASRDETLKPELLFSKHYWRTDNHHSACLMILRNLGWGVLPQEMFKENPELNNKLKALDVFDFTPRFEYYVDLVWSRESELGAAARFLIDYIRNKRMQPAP
The experiment in a line: SPR. In kind it is binding.

The structures appear in SMILES notation.

Turning to `[H]/N=C(\N/C(=N/[H])NCCCCCCNC(=N)NC(=N)Nc1ccc(Cl)cc1)Nc1ccc(Cl)cc1` [chlorhexidine], the affinity, expressed as Kd, was 62.3 µM.
